Patent US20240158446A1, “CYCLIC COMPOUND HAVING SELECTIVE INHIBITORY ACTION ON KRAS OVER HRAS AND NRAS” (CHUGAI SEIYAKU KABUSHIKI KAISHA, priority 2021, published 2024)
Where two headings read alike, the source gives them in different places. Where a SMILES comes first, the peptide text is derived from it. Bridges are numbered along the chain shown (N, C = ends). [ ]: non-standard residue; d: D form. The star is where a group is joined. hPhe(3,5-F2-4-CF3) = N[C@@H](CCc1cc(F)c(C(F)(F)F)c(F)c1)C(=O)O; hPhe(3-Cl-4-CF3) = N[C@@H](CCc1ccc(C(F)(F)F)c(Cl)c1)C(=O)O; NPrPhe(4-CF3) = CCCN[C@@H](Cc1ccc(C(F)(F)F)cc1)C(=O)O; NMeGly(cPent) = CN[C@H](C(=O)O)C1CCCC1; Pro(4,4-F2) = O=C(O)[C@@H]1CC(F)(F)CN1; NMeD = CN[C@@H](CC(=O)O)C(=O)O; NMeL = CN[C@@H](CC(C)C)C(=O)O; Pip = O=C(O)[C@@H]1CCCCN1; Iva = CC[C@](C)(N)C(=O)O; Morpholide = C1CN(*)CCO1; Ac5c = NC1(C(=O)O)CCCC1; Aze = O=C(O)[C@@H]1CCN1; Sar = CNCC(=O)O

How the values were obtained:
[1] = molecular target: GDP-bound KRAS wild-type protein (Homo sapiens, UniProt P01116); experiment: Binding to KRAS by surface plasmon resonance (SPR), Single Cycle Kinetics; settings: GDP-bound KRAS wild-type protein, read-out: KRAS KD
[2] = molecular target: GDP-bound HRAS wild-type protein (Homo sapiens, UniProt P01112); experiment: Binding to HRAS by surface plasmon resonance (SPR), Single Cycle Kinetics; settings: for HRAS/KRAS (ratio of KD value for HRAS to KD value for KRAS) / HRAS/KRAS (ratio of KD value with respect to HRAS to KD value with respect to KRAS): SPR, GDP-bound HRAS wild-type protein vs GDP-bound KRAS wild-type protein; for HRAS/KRAS (ratio of KD value with respect to GDP-bound HRAS wild-type protein to KD value with respect to KRAS): SPR KD ratio HRAS/KRAS, class symbols
[3] = molecular target: GDP-bound NRAS wild-type protein (Homo sapiens, UniProt P01111); experiment: Binding to NRAS by surface plasmon resonance (SPR), Single Cycle Kinetics; settings: for NRAS/KRAS (ratio of KD value for NRAS to KD value for KRAS) / NRAS/KRAS (ratio of KD value with respect to NRAS to KD value with respect to KRAS): SPR, GDP-bound NRAS wild-type protein vs GDP-bound KRAS wild-type protein; for NRAS/KRAS (ratio of KD value with respect to GDP-bound NRAS wild-type protein to KD value with respect to KRAS): SPR KD ratio NRAS/KRAS, class symbols
[4] = SPR Single Cycle Kinetics, 1:1 binding model

GDP-bound KRAS wild-type protein, sequence (P01116 whole entry): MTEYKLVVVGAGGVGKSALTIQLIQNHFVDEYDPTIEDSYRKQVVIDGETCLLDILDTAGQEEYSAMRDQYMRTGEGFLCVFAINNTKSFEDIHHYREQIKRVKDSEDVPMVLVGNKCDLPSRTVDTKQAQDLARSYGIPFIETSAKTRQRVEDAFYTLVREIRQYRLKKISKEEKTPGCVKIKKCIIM
GDP-bound NRAS wild-type protein, sequence (P01111 whole entry): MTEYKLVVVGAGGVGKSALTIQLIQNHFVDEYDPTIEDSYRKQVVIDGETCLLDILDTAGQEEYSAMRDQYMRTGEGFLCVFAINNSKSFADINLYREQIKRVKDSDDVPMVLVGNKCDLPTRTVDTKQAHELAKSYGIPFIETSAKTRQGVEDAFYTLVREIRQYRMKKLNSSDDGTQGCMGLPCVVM
GDP-bound HRAS wild-type protein, sequence (P01112 whole entry): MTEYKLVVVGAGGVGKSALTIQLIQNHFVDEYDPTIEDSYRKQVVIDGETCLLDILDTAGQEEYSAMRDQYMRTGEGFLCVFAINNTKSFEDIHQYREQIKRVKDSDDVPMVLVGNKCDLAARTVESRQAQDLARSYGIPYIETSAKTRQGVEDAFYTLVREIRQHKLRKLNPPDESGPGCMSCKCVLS

| SMILES | Kd [1, 4] | HRAS/KRAS (ratio of KD value for HRAS to KD value for KRAS) [2] | NRAS/KRAS (ratio of KD value for NRAS to KD value for KRAS) [3] | Kd ([1]; SPR, Single Cycle Kinetics) | other results |
| --- | --- | --- | --- | --- | --- |
| CCCN1C(=O)CN(C)C(=O)[C@@H]2CCN2C(=O)[C@H]([C@@H](C)CC)NC(=O)[C@H](CC(C)C)N(C)C(=O)C[C@@H](C(=O)N2CCOCC2)NC(=O)[C@H](C2CCCC2)N(C)C(=O)C2(CCCC2)NC(=O)[C@@H]2CC(F)(F)CN2C(=O)[C@H](CCc2ccc(C(F)(F)F)c(Cl)c2)NC(=O)CN(C)C(=O)[C@@H]1Cc1ccc(C(F)(F)F)cc1 [PP0339] ([NMeL]I[Aze][Sar][NPrPhe(4-CF3)][Sar][hPhe(3-Cl-4-CF3)][Pro(4,4-F2)][Ac5c][NMeGly(cPent)]D-Morpholide; lactam N-11) | 5 nM | B (a compound having 3 or more and less than 10 is denoted as B) | B (a compound having 3 or more and less than 10 is denoted as B) | – | – |
| CCO[C@@H]1C[C@H]2C(=O)NC3(CCC3)C(=O)N(C)[C@@H](C3CCCC3)C(=O)N(C)[C@H](C(=O)N(C)C)CC(=O)N(C)[C@@H](CC3CCCC3)C(=O)N[C@@H]([C@@H](C)CC)C(=O)N(C)CC(=O)N(C)[C@H]3C/C=C\CCN(C3=O)[C@@H](Cc3ccc(C(F)(F)F)cc3)C(=O)N(C)CC(=O)N[C@@H](CCc3ccc(C(F)(F)F)c(Cl)c3)C(=O)N2C1 [PP2842] | 0.08 nM | – | – | – | HRAS/KRAS (ratio of KD value with respect to GDP-bound HRAS wild-type protein to KD value with respect to KRAS) [2]: B (a compound having 3 or more and less than 10 is denoted as B); NRAS/KRAS (ratio of KD value with respect to GDP-bound NRAS wild-type protein to KD value with respect to KRAS) [3]: A (a compound having 10 or more and less than 20 is denoted as A) |
| CCO[C@@H]1C[C@H]2C(=O)NC3(CCC3)C(=O)N(C)[C@@H](C3CCCC3)C(=O)N(C)[C@H](C(=O)N(C)CC)CC(=O)N(C)[C@@H](CC(C)C)C(=O)N[C@@H]([C@@H](C)CC)C(=O)N(C)CC(=O)N(C)[C@H]3C/C=C\CCN(C3=O)[C@@H](Cc3ccc(C(F)(F)F)cc3)C(=O)N(C)CC(=O)N[C@@H](CCc3ccc(C(F)(F)F)c(OC)c3)C(=O)N2C1 [PP2846] | 0.091 nM | – | – | – | HRAS/KRAS (ratio of KD value with respect to GDP-bound HRAS wild-type protein to KD value with respect to KRAS) [2]: A (a compound having 10 or more and less than 20 is denoted as A); NRAS/KRAS (ratio of KD value with respect to GDP-bound NRAS wild-type protein to KD value with respect to KRAS) [3]: AA (a compound having 20 or more is denoted as AA) |
| CCO[C@@H]1C[C@H]2C(=O)NC3(CCC3)C(=O)N(C)[C@@H](C3CCCC3)C(=O)N(C)[C@H](C(=O)N3CCOCC3)CC(=O)N(C)[C@@H](CC(C)C)C(=O)N[C@@H]([C@@H](C)CC)C(=O)N(C)CC(=O)N(C)[C@H]3CCCCCN(C3=O)[C@@H](Cc3ccc(F)cc3Cl)C(=O)N(C)CC(=O)N[C@@H](CCc3cc(F)c(C(F)(F)F)c(F)c3)C(=O)N2C1 [PP0918] | – | B (a compound having 3 or more and less than 10 is denoted as B) | B (a compound having 3 or more and less than 10 is denoted as B) | 0.4 nM | – |
| CCO[C@@H]1C[C@H]2C(=O)NC3(CCC3)C(=O)N(C)[C@@H](C3CCCC3)C(=O)N(C)[C@H](C(=O)N3CCOCC3)CC(=O)N(C)[C@@H](Cc3ccc(F)c(F)c3)C(=O)N[C@@H]([C@@H](C)CC)C(=O)N(C)CC(=O)N(C)[C@H]3CCCCCN(C3=O)[C@@H](Cc3ccc(C(F)(F)F)cc3)C(=O)N(C)CC(=O)N[C@@H](CCc3cc(F)c(C(F)(F)F)c(F)c3)C(=O)N2C1 [PP0928] | – | B (a compound having 3 or more and less than 10 is denoted as B) | A (a compound having 10 or more and less than 20 is denoted as A) | 1 nM | – |
| CC[C@@H]1C[C@H]2C(=O)NC3(CCCC3)C(=O)N(C)[C@@H](C3CCCC3)C(=O)N(C)[C@H](C(=O)N(C)CC)CC(=O)N(C)[C@@H](C)C(=O)N[C@@H]([C@@H](C)CC)C(=O)N(C)CC(=O)N(C)[C@H]3C/C=C\CCN(C3=O)[C@@H](Cc3ccc(C(F)(F)F)cc3)C(=O)N(C)CC(=O)N[C@@H](CCc3cc(F)c(C(F)(F)F)c(F)c3)C(=O)N2C1 [PP2271] | – | A (a compound having 10 or more and less than 20 is denoted as A) | A (a compound having 10 or more and less than 20 is denoted as A) | 0.29 nM | – |
| CCCN1C(=O)CN(C)C(=O)CN(C)C(=O)[C@H]([C@@H](C)CC)NC(=O)[C@H](CC(C)C)N(C)C(=O)C[C@@H](C(=O)N(C)C)N(C)C(=O)[C@H](C2CCCC2)N(C)C(=O)[C@](C)(CC)NC(=O)[C@@H]2CCCN2C(=O)[C@H](CCc2cc(F)c(C(F)(F)F)c(F)c2)NC(=O)CN(C)C(=O)[C@@H]1Cc1ccc(C(F)(F)F)cc1 [PP0805] ([NMeL]I[Sar][Sar][NPrPhe(4-CF3)][Sar][hPhe(3,5-F2-4-CF3)]P[Iva][NMeGly(cPent)][NMeD]-NMe2; lactam N-11) | 0.16 nM | – | – | – | HRAS/KRAS (ratio of KD value with respect to HRAS to KD value with respect to KRAS) [2]: C (A compound having a KD ratio of 0.1 or more and less than 3 is denoted as C); NRAS/KRAS (ratio of KD value with respect to NRAS to KD value with respect to KRAS) [3]: B (a compound having 3 or more and less than 10 is denoted as B) |
| CC[C@H](C)[C@@H]1NC(=O)[C@H](CC(C)C)N(C)C(=O)C[C@@H](C(=O)N2CCOCC2)N(C)C(=O)[C@H](C2CCCC2)N(C)C(=O)C2(CCCC2)NC(=O)[C@@H]2CCCN2C(=O)[C@H](CCc2ccc(C(F)(F)F)c(Cl)c2)NC(=O)CN(C)C(=O)[C@H](Cc2ccc(F)cc2)N2CCCCC[C@@H](C2=O)N(C)C(=O)CN(C)C1=O [PP0612] | 0.39 nM | – | – | – | HRAS/KRAS (ratio of KD value with respect to HRAS to KD value with respect to KRAS) [2]: B (a compound having 3 or more and less than 10 is denoted as B); NRAS/KRAS (ratio of KD value with respect to NRAS to KD value with respect to KRAS) [3]: B (a compound having 3 or more and less than 10 is denoted as B) |
| CCO[C@@H]1C[C@H]2C(=O)NC3(CCC3)C(=O)N(C)[C@@H](C3CCCC3)C(=O)N(C)[C@H](C(=O)N(C)C)CC(=O)N(C)[C@@H](CC)C(=O)N[C@@H]([C@@H](C)CC)C(=O)NCC(=O)N(C)[C@H]3C/C=C\CCN(C3=O)[C@@H](Cc3ccc(C(F)(F)F)cc3)C(=O)N(C)CC(=O)N[C@@H](CCc3cc(F)c(C(F)(F)F)c(F)c3)C(=O)N2C1 [PP0983, (2S,8S,12R,14S,20S,23S,27S,30S,36S,38Z)-20-cyclopentyl-8-[2-[3,5-difluoro-4-(trifluoromethyl)phenyl]ethyl]-12-ethoxy-27-ethyl-N,N,4,19,22,26,35-heptamethyl-30-[(1S)-1-methylpropyl]-3,6,9,15,18,21,25,28,31,34,42-undecaoxo-2-[[4-(trifluoromethyl)phenyl]methyl]spiro[1,4,7,10,16,19,22,26,29,32,35-undecazatricyclo[34.5.1.0^10,14]dotetracont-38-ene-17,1′-cyclobutane]-23-carboxamide] | – | A (a compound having 10 or more and less than 20 is denoted as A) | A (a compound having 10 or more and less than 20 is denoted as A) | 0.078 nM | – |
| CCCN1C(=O)CN(C)C(=O)CN(C)C(=O)[C@H]([C@@H](C)CC)NC(=O)[C@H](CC(C)C)N(C)C(=O)C[C@@H](C(=O)N2CCOCC2)N(C)C(=O)[C@H](C2CCCC2)N(C)C(=O)C2(CCCC2)NC(=O)[C@@H]2CCCCN2C(=O)[C@H](CCc2ccc(C(F)(F)F)c(Cl)c2)NC(=O)CN(C)C(=O)[C@@H]1Cc1ccc(C(F)(F)F)cc1 [PP0263] ([NMeL]I[Sar][Sar][NPrPhe(4-CF3)][Sar][hPhe(3-Cl-4-CF3)][Pip][Ac5c][NMeGly(cPent)][NMeD]-Morpholide; lactam N-11) | 0.47 nM | C (A compound having a KD ratio of 0.1 or more and less than 3 is denoted as C) | B (a compound having 3 or more and less than 10 is denoted as B) | – | – |
| CCO[C@@H]1C[C@H]2C(=O)NC3(CCC3)C(=O)N(C)[C@@H](C3CCCC3)C(=O)N(C)[C@H](C(=O)N(C)CCOC)CC(=O)N(C)[C@@H](C)C(=O)N[C@@H]([C@@H](C)CC)C(=O)N(C)CC(=O)N(C)[C@H]3C/C=C\CCN(C3=O)[C@@H](Cc3ccc(C(F)(F)F)cc3)C(=O)N(C)CC(=O)N[C@@H](CCc3cc(F)c(C(F)(F)F)c(F)c3)C(=O)N2C1 [PP1319, (2S,8S,12R,14S,20S,23S,27S,30S,36S,38Z)-20-cyclopentyl-8-[2-[3,5-difluoro-4-(trifluoromethyl)phenyl]ethyl]-12-ethoxy-N-(2-methoxyethyl)-N,4,19,22,26,27,32,35-octamethyl-30-[(1S)-1-methylpropyl]-3,6,9,15,18,21,25,28,31,34,42-undecaoxo-2-[[4-(trifluoromethyl)phenyl]methyl]spiro[1,4,7,10,16,19,22,26,29,32,35-undecazatricyclo[34.5.1.0^10,14]dotetracont-38-ene-17,1′-cyclobutane]-23-carboxamide] | – | – | – | – | Kd ([1]; SPR, Single Cycle Kinetics, 1:1 binding model): 0.069 nM; HRAS/KRAS (ratio of KD value for HRAS to KD value for KRAS) ([2]; KD ratio class): B (a compound having 3 or more and less than 10 is denoted as B); NRAS/KRAS (ratio of KD value for NRAS to KD value for KRAS) ([3]; KD ratio class): A (a compound having 10 or more and less than 20 is denoted as A) |
